The subject of one assay is CHO DG44 cells. Kind of assay: Multiple VPA additions, IgG batch titer by ELISA (Example 3). The assay is classed as cell-based, Chinese Hamster. To be noted: day 10 after transfection. On the procedure:
10 million suspension-adapted HEK293E cells were resuspended in 0.5 ml of Ex-Cell 293 HEK 293 serum-free medium with 4 mmol/l L-glutamine (Cat. No. 14571C-[…]; Lot No. 6A0093; SAFC Biosciences, Lenexa, Kans., USA, “Ex-Cell” medium; note: “Ex-Cell” medium-as used herein-refers to a medium comprising 4 mmol/l L-glutamine) in a 50-ml filter tube each (TPP AG, Trasadingen, Switzerland; Cat. No. 87050, Lot 20050174). In a separate set, 10 million suspension-adapted CHO DG44 cells were resuspended in 0.5 ml of ProCHO5 serum-free medium with 4 mmol/[…] hypoxanthine and 0.194 g/l thymidine (BioWhittaker (Lonza), Belgium; Cat. No. BE12-[…]; Lot No. 7 MB0040; “ProCHO5” medium; note: “ProCHO5” medium-as used herein-refers to a medium comprising 4 mmol/[…] hypoxanthine and 0.194 g/l thymidine) in a 50-ml filter tube each (TPP AG, Trasadingen, Switzerland; Cat. No. 87050, Lot 20050174). Then 12.5 μg plasmid DNA at a concentration of 1 μg/μl was added in each tube with the following composition 50% (6.25 μg) p-LC (SEQ ID NO: 1) 50% (6.25 μg) p-HC (SEQ ID NO: 3). Plasmid p-LC comprises the genetic information for the production of the light chain of an IgG antibody, plasmid p-HC comprises the genetic information for the production of the heavy chain of an IgG antibody. The particular vector constructs used in the present invention can also be obtained from the inventors. The inventors can be contacted via e-mail at […]. […] In short, Goat anti-human kappa light chain IgG (Biosource) was used for coating the ELISA-plates, and with AP-conjugated goat anti-human gamma chain IgG (Biosource) the synthesized IgG1 was detected. […] Absorption was measured at 405 nm against 490 nm using a microplate reader (SPECTRAmaxTM340; Molecular Devices, Palo Alto, Calif., USA).
(An ELISA detects its analyte on a solid surface through an enzyme-linked reagent.)

A further assay concerns CHO cells. As to the kind of experiment: Stable cell lines, IgG batch titer by ELISA (Example 5). The assay is classed as cell-based, Chinese Hamster. Conditions: 0.5 mmol/l final VPA; stable mass culture; 5 days after VPA addition.

1 compound from patent US20090023186A1, “USE OF VALPROIC ACID FOR ENHANCING PRODUCTION OF RECOMBINANT PROTEINS IN MAMMALIAN CELLS” (EXCELLGENE SA, priority 2007, published 2009) can be followed below.

In the case of `CCCC(CCC)C(=O)O` [VPA, valproic acid], the Batch titer is 35.8 mg/L with CHO DG44 cells (0.5 mmol/l VPA at day 0) and 37.9 mg/L in the assay with CHO DG44 cells (escalating dosage, 0.125 to 0.5 mmol/l in 0.125 mmol/l increments every other day). In the assay with CHO DG44 cells, the “batch titers, direct addition versus slowly increasing concentration” value is “statistically not different”. In the assay on CHO cells, the “Batch titer CHO” value amounted to 35.5 ± 2.5 mg/L.
